Results reported in patent US20080025970A1, “Treatment of atherosclerosis” (priority 2004, published 2008).

Columns and labels:
Format in all cases: cell-based
[1] = test system: adhesion of highly activated U937 cells to oxidised LDL; assay: Adhesion of highly activated U937 cells (PMA plus vitamin A and vitamin D) to oxidised LDL; details: raft-disrupting agents; all concentrations tested; FIG. 5
Description: Plastic wells were coated with oxidised LDL, or fibronectin 10 μg/ml for 16 hrs at 4° C., and washed. Monocytes were isolated in an unactivated state from one unit of buffy coat cells by the method of Tsouknos et al^26, labelled with carboxyfluorescein for 30 mins, and washed. Inhibitors and control Ig UPC10 were added to the plates in 50 μL, and then 50 μL of cells at a final concentration of 3×10^6/ml in the assay. The plates were incubated at 37° C. for 1 hr. Non-adherent cells were removed by a standardised washing procedure, and after addition of cell suspension to 3 wells as the 100% control, the plates were measured in an automatic fluorescent spectrophotometer.
U937 cells were stimulated with PMA 10 ng/ml, plus vitamin A (1 ug/ml) and vitamin D (10^-7 M) for 16 hours, and then the assay was performed as in Example 3.
U937 cells were stimulated as in Example 5, and the experiment performed as in Example 3. The results are shown in FIG. 6, with the legend as in the previous figures. CD14, CD18, TLR-4 antibodies were all murine Igs. MOPC21:—control murine IgG1, UPC10:—control murine IgG2a.

[2] = test system: adhesion of highly activated U937 cells to HSP60; assay: Adhesion of highly activated U937 cells to HSP60 coated wells; details: at the lowest concentration tested; FIG. 9
[3] = test system: adhesion of monocytes to tissue sections of atherosclerotic plaque; assay: Adhesion of monocytes to tissue sections of atherosclerotic plaque

Row | Compound | inhibition of activated U937 cell adhesion to oxidised LDL [1] | inhibition of binding of highly activated U937 cells to HSP60 [2] | inhibition of adhesion of monocytes to tissue sections of atherosclerotic plaque [3]
1 | methyl cyclodextrin | near-total inhibition | – | –
2 | C[S+](C)[O-] [DMSO, Dimethylsulphoxide] | – | highly inhibitory | inhibits adhesion
3 | C[C@@H]1[C@H](O)[C@@H](C)/C=C/C=C/CC/C=C/C=C/C=C/C=C/C(O[C@H]2O[C@H](C)[C@@H](O)[C@H](N)[C@@H]2O)CC2O[C@](O)(CC(O)C(O)CCC(O)CC(O)CC(O)CC(=O)O[C@H]1C)CC(O)C2C(=O)O (stereo partly shown) [nystatin] | near-total inhibition | – | –
